According to patent US12504393B2, “Method and system for determining the progesterone-associated physiological state of lactating cows” (Yissum Research Development Company of the Hebrew …, priority 2020, dated 2025):
Entries after “also recorded” stand apart in the source; their conditions may differ.

Experiments:
Assay type in all cases: cell-based, cow
[1] = system: mammary epithelial cells; assay: Cellular triglyceride and phospholipid content and composition by HPLC-ELSD after 24 h progesterone
Procedure: To examine the effect of progesterone on MFG formation, secretion and size, the culture medium was supplemented with very low-density lipoprotein (VLDL) and progesterone at different concentrations (0, 1, 5 and 20 ng/ml). Progesterone concentrations were based on those found in the plasma during the luteal and follicular phases in vivo. After 24 h, cells were either fixed for lipid droplet size analysis (detailed below (or harvested with trypsin (0.05% w/v), sedimented by centrifugation, and washed with 0.9 gr/L NaCl.
For lipid extraction and analysis, 150,000 MEC were plated in a 60-mm plastic dish. For Nile red fluorescence staining, 50,000 MEC were plated in a 6-well plate on glass cover slips. After 24 h incubation, the culture medium was replaced with DMEM/F12 without serum, containing 0.15% (w/v) free fatty acids-free BSA and insulin (1 μg/ml), hydrocortisone (0.5 μg/ml) and prolactin (1 μg/ml). Cells were incubated for 48 h to induce milk lipid and protein synthesis.
(§1) Lipids were extracted by the Folch protocol. Briefly, each cell sample was incubated for 1 h with “Folch mixture” (chloroform:methanol, […] volumetric ratio). The organic phase was separated by addition of double-distilled water (DDW) and overnight incubation at 4° C. The upper phase was then removed, and the lower phase filtered through glass wool. The lower phase was evaporated under nitrogen and then dissolved in chloroform:methanol (3:97). Samples were kept at −20° C. until further analysis.
High-pressure liquid chromatography (HPLC) was performed in an HPLC 1200 (Agilent Technology) equipped with evaporative light-scattering detector. Tg, cholesterol and PL were identified using external standards (Sigma Aldrich). Quantification was performed against external standard curves and expressed as μg/106 live cells or as weight % of the total PL (μg) in the sample. The number of live cells was determined with a hemocytometer after Trypan blue staining.

[2] = system: mammary epithelial cells; assay: Increasing or decreasing progesterone concentrations with or without VLDL in the culture medium: lipid droplet number and cellular phenotype
Procedure: To determine whether the effect of progesterone on lipid droplet size is mediated by the presence of VLDL, a b-factorial experiment was performed. MEC were cultured with increasing or decreasing progesterone concentrations in the presence or absence of VLDL in the culture medium. This study was aimed to provide indirect evidence of lipoprotein lipase (LPL) activity, acting on VLDL and providing the MEC with exogenous, preformed fatty acids. After 48 h of incubation, cells were fixed and stained with Nile red and intracellular lipid droplet size was determined. Cells were grown on glass cover slips, washed three times with phosphate buffered saline (PBS) and fixed with 4% paraformaldehyde in PBS for 20 min at room temperature. Then the cells were washed four times with PBS, stained with Nile red (200 nM) and incubated for 15 min. Cover slips were then washed three times with PBS and stained with DAPI for 5 min. Cover slips were washed four more times with PBS and mounted on a slide with fluorescent mounting medium (Dako North America Inc., Carpinteria, CA). The slides were visualized under an Olympus BX40 fluorescence microscope equipped with an Olympus DP73 digital camera using CellSens Entry software (version 1.7, Olympus). Lipid droplet diameter was measured using ImageJ software (version 1.48, NIH, Bethesda, MD). Lipid droplet diameter was divided into three size categories: small (<1 μm), medium (1 μm<x<2 μm) and large (>2 μm).

[3] = system: mammary epithelial cells; assay: Lipid droplet number and size in primary mammary epithelial cells incubated 24 h with fixed progesterone concentrations (Nile red/DAPI fluorescence microscopy)
Procedure: Epithelial cells were isolated for mammary biopsies according to the method described in [3]. Cells were incubated for 24 h with 0, 1, 5, and 20 ng/ml progesterone. Cells were then fixed with 4% paraformaldehyde and nucleus and lipid droplets were stained with Dapi and Nile red (Sigma Aldrich, Israel), respectively. Four slides were prepared for each treatment and were visualized with an Olympus BX40 fluorescence microscope equipped with an Olympus DP73 digital camera using CellSens Entry software version 1.7. The lipid droplets of 6-10 cells on each slide were counted and measured using ImageJ software. The experiment was repeated twice. For the in-vitro study, primary culture of MEC was performed according to a protocol established described in [1]. Briefly, mammary tissue was collected from lactating cows in a commercial slaughterhouse and immediately transferred to ice-cold growth medium with 1000 U/ml penicillin, 1 mg/ml streptomycin, 2.5 μg/ml amphotericin mixture, and 0.02 mg/ml heparin. Mammary tissue was digested in medium with 1 mg/ml collagenase, 1 mg/ml hyaluronidase and 0.02 mg/ml heparin, for 3 h at 37° C. After incubation, the suspension was filtered through a metal mesh (250 μm). Sediments were treated with trypsin-EDTA solution and filtered through a 100-μm cell strainer (BD Falcon, Bedford, MA). Then, the cells were grown in plastic culture dishes with DMEM/F12 supplemented with 10% (w-/v) fetal bovine serum, 100 U/ml penicillin, 100 μg/ml streptomycin, 0.25 μg/ml amphotericin B, 1 μg/ml insulin and […] hydrocortisone. The medium was changed every 48 h. To examine the effect of progesterone on MFG formation, secretion and size, the culture medium was supplemented with very low-density lipoprotein (VLDL) and progesterone at different concentrations (0, 1, 5 and 20 ng/ml). Progesterone concentrations were based on those found in the plasma during the luteal and follicular phases in vivo. After 24 h, cells were either fixed for lipid droplet size analysis (detailed below (or harvested with trypsin (0.05% w/v), sedimented by centrifugation, and washed with 0.9 gr/L NaCl. For lipid extraction and analysis, 150,000 MEC were plated in a 60-mm plastic dish. For Nile red fluorescence staining, 50,000 MEC were plated in a 6-well plate on glass cover slips. After 24 h incubation, the culture medium was replaced with DMEM/F12 without serum, containing 0.15% (w/v) free fatty acids-free BSA and insulin (1 μg/ml), hydrocortisone (0.5 μg/ml) and prolactin (1 μg/ml). Cells were incubated for 48 h to induce milk lipid and protein synthesis. Cells were grown on glass cover slips, washed three times with phosphate buffered saline (PBS) and fixed with 4% paraformaldehyde in PBS for 20 min at room temperature. Then the cells were washed four times with PBS, stained with Nile red (200 nM) and incubated for 15 min. Cover slips were then washed three times with PBS and stained with DAPI for 5 min. Cover slips were washed four more times with PBS and mounted on a slide with fluorescent mounting medium (Dako North America Inc., Carpinteria, CA). The slides were visualized under an Olympus BX40 fluorescence microscope equipped with an Olympus DP73 digital camera using CellSens Entry software (version 1.7, Olympus). Lipid droplet diameter was measured using ImageJ software (version 1.48, NIH, Bethesda, MD). Lipid droplet diameter was divided into three size categories: small (<1 μm), medium (1 μm<x<2 μm) and large (>2 μm).

[4] = system: mammary epithelial cells; assay: Lipid droplet number and size in primary mammary epithelial cells exposed 48 h to increasing or decreasing progesterone concentrations
Procedure: The effect of progesterone concentration pattern during the estrous cycle on lipid droplet size was also tested. Primary mammary epithelial cells were exposed for 48 h to either increasing (0.75, 2.5 and 5 ng/ml) progesterone concentrations or decreasing (5, 2.5 and 0.75 ng/ml) progesterone concentrations. The concentrations were increased or decreased at specific times to reflect the progesterone pattern during the increasing and decreasing phases of the estrus cycle, i.e. the cells were exposed to increasing concentrations of 0.75, 2.5 and 5 ng/ml progesterone at 0, 17 and 28 h, respectively and cells were exposed to decreasing concentrations of 5, 2.5 and 0.75 ng/ml progesterone at 0, 28 and 34 h, respectively. Cells were then fixed and stained with nile-red. Four slides were prepared for each treatment and lipid droplets were counted and measured under fluorescence microscope. The experiment was repeated twice.
For the in-vitro study, primary culture of MEC was performed according to a protocol established described in [1]. Briefly, mammary tissue was collected from lactating cows in a commercial slaughterhouse and immediately transferred to ice-cold growth medium with 1000 U/ml penicillin, 1 mg/ml streptomycin, 2.5 μg/ml amphotericin mixture, and 0.02 mg/ml heparin. Mammary tissue was digested in medium with 1 mg/ml collagenase, 1 mg/ml hyaluronidase and 0.02 mg/ml heparin, for 3 h at 37° C. After incubation, the suspension was filtered through a metal mesh (250 μm). Sediments were treated with trypsin-EDTA solution and filtered through a 100-μm cell strainer (BD Falcon, Bedford, MA). Then, the cells were grown in plastic culture dishes with DMEM/F12 supplemented with 10% (w-/v) fetal bovine serum, 100 U/ml penicillin, 100 μg/ml streptomycin, 0.25 μg/ml amphotericin B, 1 μg/ml insulin and […] hydrocortisone. The medium was changed every 48 h.
To determine whether the absolute progesterone concentration or its pattern (i.e., increasing or decreasing) affects MFG, cells were treated for 48 h with increasing doses of progesterone: 0.75, 2.5 and 5 ng/ml. The culture medium was replaced after 11, 17, and 20 h, respectively, aimed to mimic the in-vivo luteal phase. The decreasing phase consisted of exposure to 5, 2.5 and 0.75 ng/ml progesterone. Culture medium was replaced after 8, 12 and 28 h, respectively, to mimic the follicular phase.
Cells were grown on glass cover slips, washed three times with phosphate buffered saline (PBS) and fixed with 4% paraformaldehyde in PBS for 20 min at room temperature. […] The slides were visualized under an Olympus BX40 fluorescence microscope equipped with an Olympus DP73 digital camera using CellSens Entry software (version 1.7, Olympus). Lipid droplet diameter was measured using ImageJ software (version 1.48, NIH, Bethesda, MD). […]

[5] = system: mammary epithelial cells; assay: Fatty acid distribution between triglyceride and phospholipid fractions (TLC and gas chromatography) after 24 h progesterone
Procedure: as §1
Lipid separation was performed by thin-layer chromatography and gas chromatography analysis. For the thin-layer chromatography, silica gel was spread on glass plates and activated at 105° C., 24 h before the analysis. After cooling, the cell samples, extracted by Folch protocol, were loaded into the plates along with triglyceride (Tg) and phospholipids (PL) standards. The plates were inserted into a tank with a mixture of petroleum ether, […] and acetic acid (8:2:1 volometric ratio) for 30 min, then sprayed with 0.05% v/v dichlorofluorescein in ethanol) and examined under UV light. The detected lipid segments were then separated from the plates into methylation mixture (5% v/v H2SO4 in methanol) for 1 h incubation at 65° C. Then, 1.5 ml petroleum-ether and 3 ml DDW were added to each sample. The upper phase was collected into a new vial and the organic solvent was evaporated with nitrogen. Then 100 μl petroleum-ether was added to each sample for fatty acid analysis in a gas chromatograph model 6890N, equipped with a flame-ionization detector and DB-23 capillary silica (0.25-μm film; Agilent Technology, Wilmington, DE). The analysis was performed according to a protocol established as described in [18]. Peaks were identified with Chemstation software (Agilent Technology). The concentrations of fatty acids are given as molar percentages of the total molar sum of the identified fatty acids. Fatty acids were classified according to chemical characteristics such as double bonds and carbon-chain length.

## CC(=O)[C@H]1CC[C@H]2[C@@H]3CCC4=CC(=O)CC[C@]4(C)[C@H]3CC[C@]12C [progesterone]
[1]; 0, 1, 5 and 20 ng/ml progesterone, 24 h
  membrane PL composition (PI, PE, PS, PC, SM): did not affect
[1]; 0, 1, 5 and 20 ng/ml progesterone, 24 h, FIG. 17A
  concentration of Tg (cellular triglyceride content): not affected by progesterone
[1]; 1 ng/ml compared to 0, 5 and 20 ng/ml progesterone, 24 h, P<0.05
  increase in concentration of the measured PL: approximately 1.3 fold
[1]; 5 ng/ml progesterone, 24 h, P<0.05
  PL amount: tended to decrease
[1]; progesterone 24 h, apparently the 1 ng/ml treatment, P<0.05
  PC concentration (elevated): 20 μg/106 cells
[2]; absence of VLDL
  differences in lipid droplet number and cellular phenotype between increasing and decreasing progesterone: no differences were found
[2]; decreasing progesterone concentration model with VLDL, P<0.0001
  increase in MEC with large lipid droplets (>1 μm): 4 fold
[2]; increasing progesterone concentration model with VLDL
  increase in proportion of MEC with small lipid droplets (<1 μm): 2.4 fold
[2]; increasing progesterone concentration with VLDL vs other treatments, FIG. 20B, P<0.0001
  average number of lipid droplets per field: Highest number of lipid droplets
[3]; 0, 1 or 20 ng/ml progesterone, 24 h
  proportion of large droplets (>1 μm): ≤ 20%
[3]; 5 ng/ml progesterone, 24 h
  proportion of droplets larger than 1 μm: over 40%
[3]; 5 ng/ml progesterone, 24 h, vs control
  number of lipid droplets: did not differ from the control
[3]; 20 ng/ml progesterone, 24 h
  rate of large droplets (>1 μm): 6.5%
[3]; 1 and 5 ng/ml progesterone, 24 h, relative to control (0 ng/ml), FIG. 3
  number of large lipid droplets (>1 μm) per cell: higher number of large lipid droplets
[3]; 1 and 5 ng/ml relative to 20 ng/ml progesterone, FIG. 4, P<0.0001
  proportion of large lipid droplets (X≥1 μm): higher
[3]; 1 or 20 ng/ml progesterone, 24 h, vs control (no progesterone), P<0.0001
  number of lipid droplets: 3.5 fold
[4]; decreasing ('down') compared to increasing ('up') progesterone concentrations, 48 h, FIG. 6, P=0.03
  proportion of large lipid droplets (>2 μm) of the total number of lipid droplets: 2 fold
[4]; increasing (0.75, 2.5, 5 ng/ml, 'up') relative to decreasing (5, 2.5, 0.75 ng/ml, 'down') progesterone, 48 h, FIG. 5, P<0.0001
  increase in the number of lipid droplets: 5.5 fold
[4]; increasing progesterone concentration 'compared to the increasing progesterone pattern' (so in the source), P<0.0001
  increase in the large lipid droplets: 3 fold
[4]; increasing vs decreasing progesterone, FIG. 19C
  large lipid droplet phenotype (cells with droplets x>1 μm): only visualized in cells treated with increasing progesterone levels
[5]; 1 ng/ml progesterone
  distribution of stearic acid (C18:0) between Tg and PL: higher in the PL compartment; also recorded: found primarily in the membrane
[5]; 5 ng/ml progesterone
  distribution of stearic acid between Tg and membrane: mostly incorporated into the Tg
[5]; 5 ng/ml progesterone, P<0.05
  concentration of lignoceric acid (C24:0), Tg vs PL: higher in the PL compartment
